# Measured values published in patent publication US9693556B2, “Herbicidal pyridazinone derivatives” (SYNGENTA LIMITED, priority 2011, dated 2017).
# What was measured:
# Format in all cases: in vivo
# [1] = tested on: Echinochloa crus-galli (ECHCG); experiment: Pre-emergence herbicidal glasshouse test on Echinochloa crus-galli; details: pre-emergence; 1000 g/h; evaluated after 13 days
# Procedure, shortened: (§1)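 Scored on a five-point scale (1 = 0-19% to 5 = 80-100% damage) 13 days after treatment. Application rate 1000 g/h in acetone/water (50:50) containing 0.5% Tween 20, sprayed one day post-sowing for pre-emergence or eight days for post-emergence; glasshouse at 24/16° C, 14 h light, 65% humidity.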
# [2] = tested on: Ipomoea hederacea (IPOHE); experiment: Post-emergence herbicidal glasshouse test on Ipomoea hederacea; details: post-emergence; 1000 g/h; evaluated after 13 days
# Procedure, shortened: as §1
# [3] = tested on: Alopecurus myosuroides (ALOMY); experiment: Post-emergence herbicidal glasshouse test on Alopecurus myosuroides; details: post-emergence; 1000 g/h; evaluated after 13 days
# Procedure, shortened: as §1
# [4] = tested on: Amaranthus retoflexus (AMARE); experiment: Pre-emergence herbicidal glasshouse test on Amaranthus retoflexus; details: pre-emergence; 1000 g/h; evaluated after 13 days
# Procedure, shortened: as §1
# [5] = tested on: Alopecurus myosuroides (ALOMY); experiment: Pre-emergence herbicidal glasshouse test on Alopecurus myosuroides; details: pre-emergence; 1000 g/h; evaluated after 13 days
# Procedure, shortened: as §1
# Solanum nigrum (SOLNI) [6] = experiment: Pre-emergence herbicidal glasshouse test on Solanum nigrum; details: pre-emergence; 1000 g/h; evaluated after 13 days
# Procedure, shortened: as §1
# Setaria faberi (SETFA) [7] = experiment: Post-emergence herbicidal glasshouse test on Setaria faberi; details: post-emergence; 1000 g/h; evaluated after 13 days
# Procedure, shortened: as §1
# [8] = tested on: Ipomoea hederacea (IPOHE); experiment: Pre-emergence herbicidal glasshouse test on Ipomoea hederacea; details: pre-emergence; 1000 g/h; evaluated after 13 days
# Procedure, shortened: as §1
# [9] = tested on: Echinochloa crus-galli (ECHCG); experiment: Post-emergence herbicidal glasshouse test on Echinochloa crus-galli; details: post-emergence; 1000 g/h; evaluated after 13 days
# Procedure, shortened: as §1
# [10] = tested on: Amaranthus retoflexus (AMARE); experiment: Post-emergence herbicidal glasshouse test on Amaranthus retoflexus; details: post-emergence; 1000 g/h; evaluated after 13 days
# Procedure, shortened: as §1
# Solanum nigrum (SOLNI) [11] = experiment: Post-emergence herbicidal glasshouse test on Solanum nigrum; details: post-emergence; 1000 g/h; evaluated after 13 days
# Procedure, shortened: as §1
# Setaria faberi (SETFA) [12] = experiment: Pre-emergence herbicidal glasshouse test on Setaria faberi; details: pre-emergence; 1000 g/h; evaluated after 13 days
# Procedure, shortened: as §1
Compound,PRE Application ECHCG herbicidal damage (five point scale) [1],POST Application IPOHE herbicidal damage (five point scale) [2],POST Application ALOMY herbicidal damage (five point scale) [3],PRE Application AMARE herbicidal damage (five point scale) [4],PRE Application ALOMY herbicidal damage (five point scale) [5],PRE Application SOLNI herbicidal damage (five point scale) (Solanum nigrum (SOLNI) [6]),POST Application SETFA herbicidal damage (five point scale) (Setaria faberi (SETFA) [7]),PRE Application IPOHE herbicidal damage (five point scale) [8],POST Application ECHCG herbicidal damage (five point scale) [9],POST Application AMARE herbicidal damage (five point scale) [10],POST Application SOLNI herbicidal damage (five point scale) (Solanum nigrum (SOLNI) [11]),PRE Application SETFA herbicidal damage (five point scale) (Setaria faberi (SETFA) [12])
CS(=O)(=O)c1cc(Cl)ccc1-c1cnn(C2CC2)c(=O)c1O [Compound 2.014],5 (5=80-100% damage),5 (5=80-100% damage),5 (5=80-100% damage),5 (5=80-100% damage),5 (5=80-100% damage),5 (5=80-100% damage),5 (5=80-100% damage),5 (5=80-100% damage),5 (5=80-100% damage),5 (5=80-100% damage),5 (5=80-100% damage),5 (5=80-100% damage)
CS(=O)(=O)c1cc(C(F)(F)F)ccc1-c1cnn(C2CC2)c(=O)c1O [Compound 2.015],5 (5=80-100% damage),5 (5=80-100% damage),5 (5=80-100% damage),5 (5=80-100% damage),5 (5=80-100% damage),5 (5=80-100% damage),5 (5=80-100% damage),5 (5=80-100% damage),5 (5=80-100% damage),5 (5=80-100% damage),5 (5=80-100% damage),5 (5=80-100% damage)
CCn1ncc(-c2ccc(C(F)(F)F)cc2S(C)(=O)=O)c(O)c1=O [Compound 2.016],5 (5=80-100% damage),5 (5=80-100% damage),5 (5=80-100% damage),5 (5=80-100% damage),5 (5=80-100% damage),5 (5=80-100% damage),5 (5=80-100% damage),5 (5=80-100% damage),5 (5=80-100% damage),5 (5=80-100% damage),5 (5=80-100% damage),5 (5=80-100% damage)
CCn1ncc(-c2ccc(Cl)cc2S(C)(=O)=O)c(O)c1=O [Compound 2.017],5 (5=80-100% damage),5 (5=80-100% damage),5 (5=80-100% damage),5 (5=80-100% damage),5 (5=80-100% damage),5 (5=80-100% damage),5 (5=80-100% damage),5 (5=80-100% damage),5 (5=80-100% damage),5 (5=80-100% damage),5 (5=80-100% damage),5 (5=80-100% damage)
Cc1c(-c2c(C3CC3)nn(C)c(=O)c2O)ccc(S(C)(=O)=O)c1C1=NOCC1 [Compound 2.019],5 (5=80-100% damage),5 (5=80-100% damage),5 (5=80-100% damage),5 (5=80-100% damage),4 (4=60-79% damage),5 (5=80-100% damage),4 (4=60-79% damage),4 (4=60-79% damage),4 (4=60-79% damage),5 (5=80-100% damage),5 (5=80-100% damage),2 (2=20-39% damage)
C=Cc1nn(C)c(=O)c(O)c1-c1ccc(S(C)(=O)=O)c(C2=NOCC2)c1C [Compound 2.020],5 (5=80-100% damage),5 (5=80-100% damage),4 (4=60-79% damage),5 (5=80-100% damage),4 (4=60-79% damage),5 (5=80-100% damage),4 (4=60-79% damage),1 (1=0-19% damage),4 (4=60-79% damage),5 (5=80-100% damage),5 (5=80-100% damage),1 (1=0-19% damage)
CCS(=O)(=O)c1nn(C)c(=O)c(O)c1-c1ccc(S(C)(=O)=O)c(C2=NOCC2)c1C [Compound 2.021],1 (1=0-19% damage),5 (5=80-100% damage),1 (1=0-19% damage),5 (5=80-100% damage),1 (1=0-19% damage),1 (1=0-19% damage),2 (2=20-39% damage),1 (1=0-19% damage),5 (5=80-100% damage),5 (5=80-100% damage),5 (5=80-100% damage),1 (1=0-19% damage)
Cn1nc([N+](=O)[O-])c(-c2ccc(C(F)(F)F)cc2S(C)(=O)=O)c(O)c1=O [Compound 2.022],5 (5=80-100% damage),5 (5=80-100% damage),5 (5=80-100% damage),5 (5=80-100% damage),5 (5=80-100% damage),5 (5=80-100% damage),5 (5=80-100% damage),5 (5=80-100% damage),5 (5=80-100% damage),5 (5=80-100% damage),5 (5=80-100% damage),4 (4=60-79% damage)
C=C(C)c1nn(C)c(=O)c(O)c1-c1ccc(S(C)(=O)=O)c(C2=NOCC2)c1C [Compound 2.023],5 (5=80-100% damage),5 (5=80-100% damage),5 (5=80-100% damage),5 (5=80-100% damage),5 (5=80-100% damage),5 (5=80-100% damage),5 (5=80-100% damage),4 (4=60-79% damage),5 (5=80-100% damage),5 (5=80-100% damage),5 (5=80-100% damage),1 (1=0-19% damage)
